# Measurements published in patent publication US5837718A, “Imidazole-derivatives having agonistic or antagonistic activity on the histamine H3-receptor” (Seed Capital Investment (SCI) B.V., priority 1995, dated 1998).
# System: histamine H3 -receptor
# Test: Antagonistic activity on the H3-receptor, test preparation not stated
# Format: cell-based
# Settings: Example 6 table, test method not stated
# Experimental: (§1) The agonistics and antagonistics activities on the H3 -receptor of the various compounds were determined compared to histamine. The test methods used therefor are described in Van der Werf et al., Agents and Actions 20, 3/4 (1987) p. 239-243 and Menkveld et al., European Journal of Pharmacology, 186 (1990) p. 343-347.
row,SMILES,pA2
1,"Cc1ccc(CCNC(=N)SCCCc2c[nH]cn2)cc1 [VUF 4658, S-[3-(4(5)-imidazolyl)propyl]-N-[2-(4-methylphenyl)ethyl]isothiourea.2HBr]",8.4
2,"N=C(NCc1ccc(F)cc1)SCCCc1c[nH]cn1 [VUF 4650, N-(4-fluorobenzyl)-S-[3-(4(5)-imidazolyl)propyl]isothiourea.2HBr]",9.38
3,"N=C(NCc1ccc(Cl)c(Cl)c1)SCCCc1c[nH]cn1 [VUF 4656, N-(3,4-dichlorobenzyl)-S-[3-(4(5)-imidazolyl)propyl] isothiourea.2HBr]",8.96
4,"N=C(NCc1ccccc1)SCCCCc1c[nH]cn1 [VUF 4661, N-benzyl-S-[4-(4(5)-imidazolyl)butyl]isothiourea dipicrate]",8.72
5,"N=C(NCc1ccc(I)cc1)SCCCc1c[nH]cn1 [VUF 4652, N-(4-iodobenzyl)-S-[3-(4(5)-imidazolyl)propyl]isothiourea.2HBr]",9.21
6,COc1ccc(CNC(=N)SCCCc2c[nH]cn2)cc1 [VUF 4654],9.39
7,N=C(NCCc1ccc(Cl)cc1)SCCCc1c[nH]cn1 [VUF 4657],9.2
8,COc1ccc(CCNC(=N)SCCCc2c[nH]cn2)cc1 [VUF 4659],8.3
9,"Cc1ccc(CNC(=N)SCCCc2c[nH]cn2)cc1 [VUF 4653, S-[3-(4(5)-imidazolyl)propyl]-N-(4-methylbenzyl) isothiourea.2HBr]",9.36
10,"N=C(NCCc1ccccc1)SCCCCc1c[nH]cn1 [VUF 4662, N-(2-phenylethyl)-S-[4-(4(5)-imidazolyl)butyl]isothiourea dipicrate]",8.13
11,"N=C(NCCc1ccc(Br)cc1)SCCCc1c[nH]cn1 [VUF 4598, N-[2-(4-bromophenyl)ethyl]-S-[3-(4(5)-imidazolyl)propyl] isothiourea.2HBr]",9.0
12,"N=C(NCc1ccc(Br)cc1)SCCCc1c[nH]cn1 [VUF 4651, N-(4-bromobenzyl)-S-[3-(4(5)-imidazolyl)propyl]isothiourea.2HBr]",9.77

# Target: T1, histamine H3 -receptor (Cavia porcellus, UniProt Q9JI35)
# T1 construct: ileum guinea pig; from tissue; host or cells: guinea pig ileum
# T1 sequence (Q9JI35 whole entry): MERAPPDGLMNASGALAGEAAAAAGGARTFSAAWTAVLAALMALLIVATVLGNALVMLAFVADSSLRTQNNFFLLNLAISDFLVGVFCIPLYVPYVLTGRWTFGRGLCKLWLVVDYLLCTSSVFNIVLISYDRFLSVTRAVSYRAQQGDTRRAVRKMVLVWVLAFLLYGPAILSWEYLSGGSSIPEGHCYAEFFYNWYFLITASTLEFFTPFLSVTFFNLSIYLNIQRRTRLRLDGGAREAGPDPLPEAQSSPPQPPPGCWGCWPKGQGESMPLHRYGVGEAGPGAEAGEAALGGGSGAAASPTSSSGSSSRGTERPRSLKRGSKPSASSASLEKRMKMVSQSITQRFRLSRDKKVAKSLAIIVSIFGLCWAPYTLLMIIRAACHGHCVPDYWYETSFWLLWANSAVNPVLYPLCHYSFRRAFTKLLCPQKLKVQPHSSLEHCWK
# Test: Agonistic activity on the H3-receptor, ileum guinea pig
# Format: cell-based
# Settings: Table 3, agonistic activity, read-out: pD2 (converted)
# Experimental: (§2) The agonistics and antagonistics activities on the H3 -receptor of the various compounds were determined compared to histamine.
row,SMILES,EC50 [µM]
1,CNC(=N)SCCc1c[nH]cn1 [VUF 8621],0.0501
2,"N=C(N)SCCc1c[nH]cn1 [VUF 8325, S-[2-(4-imidazolyl)ethyl]isothiourea]",0.00794

# System: histamine H3 -receptor
# Test: Agonistic activity on the H3-receptor, test preparation not stated
# Format: cell-based
# Settings: in words
# Experimental: as §1
row,SMILES,agonistic activity
1,"N=C(N)SCCc1c[nH]cn1 [VUF 8325, S-[2-(4-imidazolyl)ethyl]isothiourea]",strong agonistic activity

# Target: T2, histamine H3 -receptor (Rattus norvegicus, UniProt Q9QYN8)
# T2 construct: Van der Werf et al., Agents and Actions 20, 3/4 (1987) p; 239-243; from tissue
# T2 sequence (Q9QYN8 whole entry): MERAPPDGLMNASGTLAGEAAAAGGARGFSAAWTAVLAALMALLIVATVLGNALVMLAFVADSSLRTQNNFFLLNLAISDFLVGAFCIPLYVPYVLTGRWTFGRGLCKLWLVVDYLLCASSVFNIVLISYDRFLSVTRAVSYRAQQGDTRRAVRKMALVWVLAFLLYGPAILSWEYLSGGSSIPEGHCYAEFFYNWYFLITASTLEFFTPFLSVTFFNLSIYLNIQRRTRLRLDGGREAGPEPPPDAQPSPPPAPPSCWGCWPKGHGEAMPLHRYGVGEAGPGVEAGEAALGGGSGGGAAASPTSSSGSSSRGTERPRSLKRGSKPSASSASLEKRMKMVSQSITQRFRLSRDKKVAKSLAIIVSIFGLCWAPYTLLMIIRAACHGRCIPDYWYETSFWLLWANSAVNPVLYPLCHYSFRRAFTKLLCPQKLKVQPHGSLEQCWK
# Test: Antagonistic activity on the H3-receptor, rat cortex
# Format: cell-based
# Settings: Table 2, antagonistic activity, read-out: pA2 (converted)
# Experimental: as §1
row,SMILES,Kb [µM]
1,N=C(Nc1ccccc1)SCCc1c[nH]cn1 [VUF 8397],0.1

# Target: T2, histamine H3 -receptor
# Test: Agonistic activity on the H3-receptor, rat cortex
# Format: cell-based
# Settings: Table 3, agonistic activity, read-out: pD2 (converted)
# Experimental: as §2
row,EC50 [µM],SMILES
1,0.0398,N=C(N)NCCc1c[nH]cn1 [VUF 83100]

# Target: T1, histamine H3 -receptor
# Test: Antagonistic activity on the H3-receptor, ileum guinea pig
# Format: cell-based
# Settings: not given
# Experimental: as §1
row,SMILES,Kb [µM]
1,"N=C(NCCc1ccccc1)SCCc1c[nH]cn1 [VUF 9029, S-[2-(imidazol-4-yl)ethyl]-N-(2-phenylethyl)-isothiourea]",0.01
2,N=C(NCCCc1ccccc1)SCCc1c[nH]cn1 [VUF 9030],0.0251
3,N=C(NCCCCc1ccccc1)SCCc1c[nH]cn1 [VUF 9031],0.02
4,CN=C(NCCc1ccccc1)SCCc1c[nH]cn1 [VUF 9051],0.0158
5,"N=C(NCCc1ccccc1)SCCCc1c[nH]cn1 [VUF 9151, S-[3-(4(5)-imidazolyl)propyl]-N-(2-phenylethyl)isothiourea]",0.00158
6,"N=C(NCCCc1ccccc1)SCCCc1c[nH]cn1 [VUF 9152, S-[3-(4(5)-imidazolyl)propyl]-N-(3-phenylpropyl)isothiourea]",0.00501
7,"N=C(NCc1ccccc1)SCCc1c[nH]cn1 [VUF 9028, N-benzyl-S-[2-(imidazol-4-yl)ethyl]isothiourea dipicrate]",0.0158
8,"N=C(NCc1ccccc1)SCCCc1c[nH]cn1 [VUF 9107, N-benzyl-S-[3-(4(5)-imidazolyl)propyl]isothiourea]",0.00158
9,N=C(NCCSCc1ccccc1)SCCc1c[nH]cn1 [VUF 8404],0.0398
10,"NC(=NCc1ccc(Cl)cc1)SCCCc1cnc[nH]1 [VUF 9153, S-[3-(4(5)-imidazolyl)propyl]-N-(4-chlorobenzyl)isothiourea]",0.000126

# Same assay, conditions: Table 2, antagonistic activity, ileum guinea pig; read-out: pA2 (converted)
row,Kb [µM],SMILES
1,0.0126,N=C(NCCCc1c[nH]cn1)NCCSCc1ccccc1 [VUF 8405]
2,0.00251,"N=C(NCCSCc1ccccc1)SCCCc1c[nH]cn1 [VUF 8414, N-[2-(benzylthio)ethyl]-S-[3-(imidazol-4-yl)propyl]isothiourea]"
3,0.00158,"N=C(NCC1CCCCC1)SCCCc1c[nH]cn1 [VUF 9163, N-cyclohexylmethyl-S-[3-(4(5)-imidazolyl)propyl]isothiourea]"
4,0.00398,"NC(=NCCCCc1ccccc1)SCCCc1cnc[nH]1 [VUF 4571, S-[3-(4(5)-imidazolyl)propyl]-N-(4-phenylbutyl)isothiourea]"

row,SMILES,Kb [µM]
1,"N=C(NCCc1ccccc1)NCCc1cnc[nH]1 [VUF 9007, N-[2-(imidazol-4-yl)ethyl]-N'-phenyl-ethylguanidine dipicrate]",0.501
2,N=C(NCCSC(c1ccccc1)c1ccccc1)SCCc1c[nH]cn1 [VUF 8409],0.251
3,"N=C(NCCc1c[nH]cn1)Nc1ccccc1 [VUF 9006, N-[2-(imidazol-4-yl)ethyl]-N'-phenyl guanidine dipicrate]",1.58
